Measurements published in patent US9505736B2, “Histone deacetylase inhibitors and compositions and methods of use thereof” (CHDI Foundation, Inc., priority 2012, dated 2016).

Experiments:
[1] = biological target: human catalytic domain HDAC4 protein (Homo sapiens, UniProt P56524, A743G/DEL730-739/DEL742-742); test: Inhibition of HDAC4 catalytic domain enzymatic activity, Boc-Lys(Tfa)-AMC substrate, fluorescence; conditions: read-out: Biochemical HDAC-4 IC50
Protocol: Analysis of Inhibition of HDAC4 with Class IIa Histone Deacetylase (HDAC) Inhibitors
The substrate is deacetylated to Boc-Lys-AMC by HDAC4. Cleavage by trypsin results in the release of the fluorophore AMC from the deacetylated substrate. The fluorescence of the sample is directly related to the histone deacetylase activity in the sample.
(§1) Serially Dilute HDAC Inhibitor Compounds.
Stocks of 60 μl aliquots of the 10 mM compound in DMSO are prepared and stored at −20° C. From one stock aliquot of each compound to be tested and the reference compound, a 16-point serial dilution is prepared according to Table 1 using a 125 μl 16-channel Matrix multi-channel pipette (Matrix Technologies Ltd).
2 μl (200×) of each diluted solution and each control (full activity: 100% DMSO alone or full inhibition 1 mM) is stamped into V-bottomed polypropylene 384-well compound plates using either the Bravo (384-well head from Agilent) or 12.5 μl 16-channel Matrix multi-channel pipette (Matrix Technologies Ltd).
Prepare HDAC4 Catalytic Domain Enzyme (0.86 μg/ml).
Prepare 5× (50 NM) Boc-Lys(Tfa)-AMC Substrate.
5× (50 μM) substrate is prepared just prior to the addition to the assay. A 1 mM substrate stock is made by diluting a 100 mM Boc-Lys(Tfa)-AMC in DMSO solution 1:100 by adding it drop-wise to assay buffer (equilibrated to room temperature) while vortexing at slow speed to prevent precipitation. The 5× substrate is prepared by diluting the 1 mM substrate solution 1:20 by adding it drop-wise to assay buffer (equilibrated to room temperature) while vortexing at slow speed to prevent precipitation.
Prepare 3× (30 NM) Developer/Stop Solution.
5 μl of each solution of 1:20 diluted compound from above is transferred to a clear bottomed, black, 384-well assay plate using the Bravo or the Janus (384-well MDT head from Perkin Elmer). Using a 16-channel Matrix multi-channel pipette, 35 μl of the working solution of HDAC4 catalytic domain enzyme (0.86 μg/ml in assay buffer) is transferred to the assay plate. The assay is then started by adding 10 μl of 5× (50 μM) substrate to the assay plates using either the Bravo, Janus or 16-channel Matrix multi-channel pipette. The assay plate is then shaken for two minutes on an orbital shaker at 900 rpm (rotations per minute). Next the plate is incubated for 15 minutes at 37° C. The reaction is stopped by adding 25 μl of 3× (30 μM) developer/stop solution to the assay plates using either the Bravo, Janus or a 16-channel Matrix multi-channel pipette. Assay plates are then shaken for 5 minutes on an orbital shaker at 1200 rpm. Next, the assay plates are incubated at 37° C. for 1 hour in a tissue culture incubator.

[2] = system: cellular histone deacetylase enzymatic activity in Jurkat E6-1 cells; test: Inhibition of cellular HDAC activity in Jurkat E6-1 cells, Class IIa selective substrate Boc-Lys(Tfa)-AMC; type: cell-based; conditions: Homo sapiens
Protocol: Analysis of Inhibition of Cellular HDAC Activity with Class IIa Histone Deacetylase (HDAC) Inhibitors
After penetration in Jurkat E6-1 cells, the substrate is deacetylated to Boc-Lys-AMC. After cell lysis and cleavage by trypsin, the fluorophore AMC is released from the deacetylated substrate only. The fluoresence of the sample is directly related to the histone deacetylase activity in the sample.
Jurkat E6.1 Cell Culture and Plating.
Jurkat E6.1 cells are cultured according to standard cell culture protocols in Jurkat E6.1 Growth Media (RPMI without phenol red, 10% FBS, 10 mM HEPES, and 1 mM Sodium Pyruvate). Jurkat E6.1 cells are counted using a Coulter Counter and resuspended in Jurkat E6.1 growth media at a concentration of 75,000 cells/35 μl. 35 μl or 75,000 cells is seeded into Greiner microtitre assay plates. The plates are then incubated at 37° C. and 5% CO2 while other assay components are being prepared.
as §1
Stocks of 70 μl aliquots of the 10 mM compound in DMSO are prepared and stored at −20° C. From one stock aliquot of each compound to be tested and the reference compound, a 16-point serial dilution is prepared according to Table 1 using a 125 μl 16-channel Matrix multi-channel pipette.
2 μl (200×) of each diluted solution and each control (full activity: 100% DMSO alone or full inhibition 1 mM) is stamped into V-bottom polypropylene 384-well compound plates using either the Bravo, Janus, or 12.5 μl 16-channel Matrix multi-channel pipette. Each well with the 200× compound solution is diluted 1:20 by the addition of 38 μl Jurkat assay buffer+DMSO (9.5% DMSO, RPMI without phenol red, 0.09% FBS, 9 mM Hepes, and 0.9 mM Sodium Pyruvate equilibrated to room temperature)
Prepare 5× (500 μM) Boc-Lys(Tfa)-AMC Substrate.
5× (500 μM) substrate is prepared just prior to the addition to the assay. The 5× substrate is prepared by diluting a 100 mM Boc-Lys(Tfa)-AMC in DMSO solution 1:200 by adding it drop-wise to Jurkat assay medium (RPMI without phenol red, 0.1% FBS, 10 mM Hepes, and 1 mM Sodium Pyruvate equilibrated to 37° C.) while vortexing at slow speed to prevent precipitation.
10 ml of 3× lysis buffer is prepared with 8.8 ml of 3× stock lysis buffer (50 mM Tris-HCl, pH 8.0, 137 mM NaCl, 2.7 mM KCl, 1 mM MgCl2, 1% Nonidet P40 Substitute equilibrated to room temperature) and 1.2 ml of 3 mg/ml Trypsin equilibrated to room temperature.
5 μl of each solution of 1:20 diluted compound from above is transferred to the Greiner microtitre assay plates with 75,000 cells/well using the Bravo. Cells are then incubated for 2 hours at 37° C. and 5% CO2. The assay is then started by adding 10 μl of 5× (500 μM) substrate to the assay plate using either the Bravo or 16-channel Matrix multi-channel pipette. The cells are then incubated for 3 hours at 37° C. and 5% CO2. Next, 25 μl of 3× lysis buffer is added to each well using either the 125 μl 16 channel pipette or the Bravo. The assay plate is then incubated overnight (15-16 hours) at 37° C. and 5% CO2. The following day, the plates are shaken on an orbital shaker for 1 minute at 900 rpm. Finally the top read fluorescence (Excitation: 355 nm, Emission: 460 nm) is measured using PerkinElmer EnVision.

Chain of human catalytic domain HDAC4 protein (P56524 with tags, fused parts or gaps A743G/DEL730-739/DEL742-742): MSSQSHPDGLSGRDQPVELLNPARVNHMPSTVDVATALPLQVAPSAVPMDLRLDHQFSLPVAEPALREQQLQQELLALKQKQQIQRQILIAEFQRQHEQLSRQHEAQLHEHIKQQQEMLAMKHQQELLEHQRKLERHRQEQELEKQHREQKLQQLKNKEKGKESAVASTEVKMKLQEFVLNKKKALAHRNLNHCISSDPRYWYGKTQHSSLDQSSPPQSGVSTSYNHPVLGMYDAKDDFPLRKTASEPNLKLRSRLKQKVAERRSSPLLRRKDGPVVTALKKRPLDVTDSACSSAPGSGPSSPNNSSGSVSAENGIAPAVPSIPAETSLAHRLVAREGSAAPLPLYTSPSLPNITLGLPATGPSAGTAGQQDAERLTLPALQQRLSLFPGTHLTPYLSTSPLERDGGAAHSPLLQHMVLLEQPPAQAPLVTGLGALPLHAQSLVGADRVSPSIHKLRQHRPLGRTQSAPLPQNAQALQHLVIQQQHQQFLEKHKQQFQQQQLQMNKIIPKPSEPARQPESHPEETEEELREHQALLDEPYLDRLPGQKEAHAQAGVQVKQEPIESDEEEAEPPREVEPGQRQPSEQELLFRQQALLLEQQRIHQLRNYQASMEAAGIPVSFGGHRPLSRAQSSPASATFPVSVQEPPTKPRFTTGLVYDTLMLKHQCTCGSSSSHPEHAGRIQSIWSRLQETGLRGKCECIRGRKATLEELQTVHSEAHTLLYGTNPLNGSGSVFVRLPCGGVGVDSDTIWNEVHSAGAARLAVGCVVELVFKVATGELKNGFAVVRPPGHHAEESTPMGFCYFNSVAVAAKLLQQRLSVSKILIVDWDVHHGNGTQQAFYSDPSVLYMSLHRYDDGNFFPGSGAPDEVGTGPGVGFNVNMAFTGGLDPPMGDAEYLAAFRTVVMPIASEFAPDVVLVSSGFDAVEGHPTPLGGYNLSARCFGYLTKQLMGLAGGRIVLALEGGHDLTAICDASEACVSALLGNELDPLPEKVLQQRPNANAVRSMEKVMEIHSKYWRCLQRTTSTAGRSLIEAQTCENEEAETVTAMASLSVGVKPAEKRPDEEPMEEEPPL

SMILES	IC50 [1] [nM]	IC50 [2] [µM]
O=C(NO)[C@@]1(F)[C@H](c2ccccc2)[C@H]1c1ccnc(C2CC2)c1 (racemic) [(1R*,2S*,3S*)-2-(2-Cyclopropylpyridin-4-yl)-1-fluoro-N-hydroxy-3-phenylcyclopropanecarboxamide]	> 50000	> 50
O=C(NO)[C@@]1(F)[C@H](c2ccccc2)[C@H]1c1ccc(-c2cnc(C3CC3)o2)cc1 (racemic) [(1R*,2S*,3S*)-2-(4-(2-Cyclopropyloxazol-5-yl)phenyl)-1-fluoro-N-hydroxy-3-phenylcyclopropanecarboxamide]	4650	28
O=C(NO)[C@@]1(F)[C@H](c2ccccc2)[C@H]1c1cc(Cl)c2c(c1)OCCO2 (racemic) [(1R*,2S*,3S*)-2-(8-Chloro-2,3-dihydrobenzo[b][1,4]dioxin-6-yl)-1-fluoro-N-hydroxy-3-phenylcyclopropanecarboxamide]	6470	40
O=C(NO)[C@]1(F)[C@H](c2ccccc2)[C@H]1c1ccc(-c2cnc(C3CC3)o2)cc1 (racemic) [(1S*,2S*,3S*)-2-(4-(2-Cyclopropyloxazol-5-yl)phenyl)-1-fluoro-N-hydroxy-3-phenylcyclopropanecarboxamide]	20	0.31
O=C(NO)[C@]1(F)[C@H](c2ccccc2)[C@H]1c1ccc(Br)cc1 (racemic) [(1S*,2S*,3S*)-2-(4-Bromophenyl)-1-fluoro-N-hydroxy-3-phenylcyclopropanecarboxamide]	60	0.87
Cc1cnc(-c2ccc([C@H]3[C@H](c4ccccc4)[C@]3(Cl)C(=O)NO)cc2)nc1 [(1R,2R,3R)-1-Chloro-N-hydroxy-2-(4-(5-methylpyrimidin-2-yl)phenyl)-3-phenylcyclopropanecarboxamide]	–	15.3
O=C(NO)[C@@]1(F)[C@@H](c2ccccc2)[C@@H]1c1ccc(-c2ncc(F)cn2)cc1 [(1R,2R,3R)-1-Fluoro-2-(4-(5-fluoropyrimidin-2-yl)phenyl)-N-hydroxy-3-phenylcyclopropanecarboxamide]	–	4.5
Cc1cnc(-c2ccc([C@H]3[C@H](c4ccccc4)[C@]3(F)C(=O)NO)cc2)nc1 [(1R,2R,3R)-1-Fluoro-N-hydroxy-2-(4-(5-methylpyrimidin-2-yl)phenyl)-3-phenylcyclopropanecarboxamide]	–	8.9
O=C(NO)[C@@]1(F)[C@@H](c2ccccc2)[C@@H]1c1ccc(-c2nccc(C(F)(F)F)n2)cc1 [(1R,2R,3R)-1-Fluoro-N-hydroxy-2-phenyl-3-(4-(4-(trifluoromethyl)pyrimidin-2-yl)phenyl)cyclopropanecarboxamide]	–	> 50
O=C(NO)[C@@]1(F)[C@@H](c2ccccc2)[C@@H]1c1ccc(-c2ncc(OC(F)F)cn2)cc1 [(1R,2R,3R)-2-(4-(5-(Difluoromethoxy)pyrimidin-2-yl)phenyl)-1-fluoro-N-hydroxy-3-phenylcyclopropanecarboxamide]	–	> 50
O=C(NO)[C@]1(F)[C@H](c2ccccc2)[C@H]1c1cnc(-c2ccc(F)cc2)s1 [(1S,2R,3S)-1-Fluoro-2-(2-(4-fluorophenyl)thiazol-5-yl)-N-hydroxy-3-phenylcyclopropanecarboxamide]	60	0.69
Cc1cnc(-c2ccc([C@@H]3[C@@H](c4ccccc4)[C@@]3(F)C(=O)NO)cc2)nc1 [(1S,2S,3S)-1-Fluoro-N-hydroxy-2-(4-(5-methylpyrimidin-2-yl)phenyl)-3-phenylcyclopropanecarboxamide]	–	0.12
O=C(NO)[C@]1(F)[C@H](c2ccccc2)[C@H]1c1ccc(-c2nccc(C(F)(F)F)n2)cc1 [(1S,2S,3S)-1-Fluoro-N-hydroxy-2-phenyl-3-(4-(4-(trifluoromethyl)pyrimidin-2-yl)phenyl)cyclopropanecarboxamide]	–	0.26
O=C(NO)[C@]1(F)[C@H](c2ccccc2)[C@H]1c1ccc(-c2ncc(OC(F)F)cn2)cc1 [(1S,2S,3S)-2-(4-(5-(Difluoromethoxy)pyrimidin-2-yl)phenyl)-1-fluoro-N-hydroxy-3-phenylcyclopropanecarboxamide]	–	0.22
